Earlier results as cited in patent publication US12715832B2, “Co-crystal of coenzyme QH and nicotinamide, preparation method therefor and use thereof” (COCRYSTAL TECHNOLOGY (JIAXING) CO., LTD, priority 2021, dated 2026).

Conditions: in the air at 25° C. for 28 days

Q: Which “coenzyme QH oxidized” value does the source give for `COc1c(O)c(C)c(C/C=C(\C)CC/C=C(\C)CC/C=C(\C)CC/C=C(\C)CC/C=C(\C)CC/C=C(\C)CC/C=C(\C)CC/C=C(\C)CC/C=C(\C)CCC=C(C)C)c(O)c1OC` [stable polymorph of coenzyme QH, coenzyme QH] here?
A: about 6%
